# Measured values published in ChEMBL document CHEMBL3046021, “Docking and QSAR studies of new 1,4-dihydropyridines containing 4(5)-chloro-2-methyl-5(4)-imidazolyl substituent” (Med Chem Res, 2012).
# Biological target: Voltage-dependent L-type calcium channel subunit alpha-1C (Cavia porcellus, UniProt O35505)
# Experiment: Inhibition of L-type calcium channel in Cavia porcellus (guinea pig) ileal SMC assessed as inhibition of 80 mM KCl-induced current
# Chain of Voltage-dependent L-type calcium channel subunit alpha-1C (O35505 whole entry): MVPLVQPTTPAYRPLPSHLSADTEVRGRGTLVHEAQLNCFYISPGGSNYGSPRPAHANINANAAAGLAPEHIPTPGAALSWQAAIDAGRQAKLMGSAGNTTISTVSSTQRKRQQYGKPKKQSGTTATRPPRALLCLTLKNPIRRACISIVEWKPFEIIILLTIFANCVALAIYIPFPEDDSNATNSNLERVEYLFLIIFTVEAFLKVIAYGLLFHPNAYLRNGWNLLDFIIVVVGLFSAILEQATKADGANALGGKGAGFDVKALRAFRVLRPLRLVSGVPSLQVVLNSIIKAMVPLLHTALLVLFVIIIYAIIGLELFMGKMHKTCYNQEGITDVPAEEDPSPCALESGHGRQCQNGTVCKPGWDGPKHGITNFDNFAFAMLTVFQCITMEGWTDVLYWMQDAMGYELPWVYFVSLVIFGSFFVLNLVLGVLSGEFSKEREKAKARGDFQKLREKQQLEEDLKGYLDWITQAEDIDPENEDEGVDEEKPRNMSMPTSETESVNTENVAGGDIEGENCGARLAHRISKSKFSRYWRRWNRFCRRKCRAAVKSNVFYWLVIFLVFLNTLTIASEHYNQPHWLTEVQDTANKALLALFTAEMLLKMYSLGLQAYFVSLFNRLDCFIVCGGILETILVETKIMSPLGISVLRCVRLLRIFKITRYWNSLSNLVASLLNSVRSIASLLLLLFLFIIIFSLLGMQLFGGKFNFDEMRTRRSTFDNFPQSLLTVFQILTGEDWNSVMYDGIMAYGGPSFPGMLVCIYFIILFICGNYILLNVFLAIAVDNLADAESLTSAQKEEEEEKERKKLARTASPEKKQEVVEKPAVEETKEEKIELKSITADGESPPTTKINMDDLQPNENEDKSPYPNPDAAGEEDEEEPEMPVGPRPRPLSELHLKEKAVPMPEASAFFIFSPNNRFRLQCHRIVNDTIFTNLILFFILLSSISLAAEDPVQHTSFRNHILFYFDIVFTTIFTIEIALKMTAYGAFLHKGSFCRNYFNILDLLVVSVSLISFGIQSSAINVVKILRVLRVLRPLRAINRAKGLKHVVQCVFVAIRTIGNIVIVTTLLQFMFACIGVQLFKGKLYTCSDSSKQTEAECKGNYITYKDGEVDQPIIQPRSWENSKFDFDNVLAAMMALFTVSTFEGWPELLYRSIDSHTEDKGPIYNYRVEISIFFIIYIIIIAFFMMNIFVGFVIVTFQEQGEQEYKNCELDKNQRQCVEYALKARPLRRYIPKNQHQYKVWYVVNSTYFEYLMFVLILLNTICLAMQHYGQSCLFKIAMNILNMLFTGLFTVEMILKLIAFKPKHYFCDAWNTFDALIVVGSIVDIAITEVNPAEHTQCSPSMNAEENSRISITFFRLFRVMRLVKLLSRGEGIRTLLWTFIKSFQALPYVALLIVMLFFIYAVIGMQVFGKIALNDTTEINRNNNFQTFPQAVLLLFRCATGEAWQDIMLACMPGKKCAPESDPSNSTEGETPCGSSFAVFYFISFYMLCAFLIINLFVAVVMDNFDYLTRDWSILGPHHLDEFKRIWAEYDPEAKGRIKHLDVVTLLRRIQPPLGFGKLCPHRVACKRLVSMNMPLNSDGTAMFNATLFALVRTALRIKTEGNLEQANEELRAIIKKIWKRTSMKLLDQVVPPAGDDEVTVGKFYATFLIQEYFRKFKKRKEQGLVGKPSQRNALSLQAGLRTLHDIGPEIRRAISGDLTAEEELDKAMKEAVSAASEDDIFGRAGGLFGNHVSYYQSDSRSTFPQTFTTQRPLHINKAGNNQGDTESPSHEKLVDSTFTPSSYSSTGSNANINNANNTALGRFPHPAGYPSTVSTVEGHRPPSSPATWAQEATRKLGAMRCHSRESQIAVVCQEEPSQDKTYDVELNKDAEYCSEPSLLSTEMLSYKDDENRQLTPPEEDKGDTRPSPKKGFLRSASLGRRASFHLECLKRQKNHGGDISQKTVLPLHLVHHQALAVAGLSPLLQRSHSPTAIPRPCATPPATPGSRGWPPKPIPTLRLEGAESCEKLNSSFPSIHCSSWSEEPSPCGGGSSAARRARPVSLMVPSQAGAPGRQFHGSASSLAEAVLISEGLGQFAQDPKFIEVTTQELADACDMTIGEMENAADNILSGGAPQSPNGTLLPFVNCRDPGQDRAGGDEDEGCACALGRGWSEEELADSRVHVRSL
row,IC50 [nM],Structure (SMILES)
1,437,CCCOC(=O)C1=C(C)NC(C)=C(C(=O)OC)C1c1[nH]c(C)nc1Cl (stereo not drawn)
2,93.3,COC(=O)C1=C(C)NC(C)=C(C(=O)OCc2ccccc2)C1c1[nH]c(C)nc1Cl (stereo not drawn)
3,79.4,COC(=O)C1=C(C)NC(C)=C(C(=O)OCCc2ccccc2)C1c1[nH]c(C)nc1Cl (stereo not drawn)
4,407,CCCOC(=O)C1=C(C)NC(C)=C(C(=O)OCC)C1c1[nH]c(C)nc1Cl (stereo not drawn)
5,437,CCOC(=O)C1=C(C)NC(C)=C(C(=O)OCC)C1c1[nH]c(C)nc1Cl
6,1660,CCOC(=O)C1=C(C)NC(C)=C(C(=O)OC(C)(C)C)C1c1[nH]c(C)nc1Cl (stereo not drawn)
7,41.7,CC1=C(C(=O)OCc2ccccc2)C(c2nc(C)[nH]c2Cl)C(C(=O)OCc2ccccc2)=C(C)N1
8,91.2,CCOC(=O)C1=C(C)NC(C)=C(C(=O)OCc2ccccc2)C1c1[nH]c(C)nc1Cl (stereo not drawn)
9,70.8,CCOC(=O)C1=C(C)NC(C)=C(C(=O)OCCc2ccccc2)C1c1[nH]c(C)nc1Cl (stereo not drawn)
10,661,CCOC(=O)C1=C(C)NC(C)=C(C(=O)OC)C1c1[nH]c(C)nc1Cl (stereo not drawn)

# Further lines, the compound ahead of its results:
row,Structure (SMILES),IC50 [nM]
1,COC(=O)C1=C(C)NC(C)=C(C(=O)OC(C)(C)C)C1c1[nH]c(C)nc1Cl (stereo not drawn),1860
2,COC(=O)C1=C(C)NC(C)=C(C(=O)OCC2CCCCC2)C1c1[nH]c(C)nc1Cl (stereo not drawn),355
3,COC(=O)C1=C(C)NC(C)=C(C(=O)OC)C1c1[nH]c(C)nc1Cl,1200
4,CCOC(=O)C1=C(C)NC(C)=C(C(=O)OCC2CCCCC2)C1c1[nH]c(C)nc1Cl (stereo not drawn),513
5,CC1=C(C(=O)OCCc2ccccc2)C(c2nc(C)[nH]c2Cl)C(C(=O)OCCc2ccccc2)=C(C)N1,0.182
6,CC1=C(C(=O)OCCCc2ccccc2)C(c2nc(C)[nH]c2Cl)C(C(=O)OCCCc2ccccc2)=C(C)N1,1.74
7,CCCOC(=O)C1=C(C)NC(C)=C(C(=O)OCCC)C1c1[nH]c(C)nc1Cl,63.1
8,CC1=C(C(=O)OC(C)C)C(c2[nH]c(C)nc2Cl)C(C(=O)OC(C)C)=C(C)N1,38
9,CC1=C(C(=O)OCC(C)C)C(c2[nH]c(C)nc2Cl)C(C(=O)OCC(C)C)=C(C)N1,95.5
10,CC1=C(C(=O)OC(C)(C)C)C(c2[nH]c(C)nc2Cl)C(C(=O)OC(C)(C)C)=C(C)N1,4070
11,CC1=C(C(=O)OC2CCCC2)C(c2[nH]c(C)nc2Cl)C(C(=O)OC2CCCC2)=C(C)N1,97.7
12,CC1=C(C(=O)OC2CCCCC2)C(c2[nH]c(C)nc2Cl)C(C(=O)OC2CCCCC2)=C(C)N1,955
13,CC1=C(C(=O)OCC2CCCCC2)C(c2[nH]c(C)nc2Cl)C(C(=O)OCC2CCCCC2)=C(C)N1,631
